Reference: patent US10640748B2, “Oligodendroglial cell culturing methods and in methods for treating neurodegenerative disorders by using thyroid hormones or analogues” (NeuOrphan Pty Ltd, priority 2014, dated 2020)
Entries after “also recorded” stand apart in the source; their conditions may differ.

Experiments:
[1] = system: Nkx2.1-GFP sorted cells transduced with slc16a2 shRNA lentivirus; assay: Apoptosis assay (cleaved caspase-3) after stable knockdown of slc16a2; type: cell-based; conditions: DITPA from 3 days post-LV-transduction
Description: Nkx2.1-GFP sorted cells at the end of stage VI or V were transduced with MOI of 10 in appropriate stage-specific medium containing polybrene (5 μg/mL, Sigma-Aldrich). Efficiency of transduction was validated by analyzing mCherry+ cells by flow cytometry and efficiency of knockdown was validated by analyzing the slc16a2 transcript level by qRT-PCR 72 hours post-transduction. An apoptosis assay was performed on cells either, treated with or without DITPA for 2 days from 72 hours post-transduction, then fixed. Cells were stained with monoclonal rat anti-mCherry (M11217, Life Technologies, 1:1,000), polyclonal rabbit anti-cleaved caspase-3 (9661, Cell Signaling Technology, 1:400) and DAPI (Life Technologies) then analyzed by confocal microscopy (Nikon A1 Inverted using a ×20 water objective lens). Apopotic OLs were defined as those mCherry-positive cells with cleaved caspase-3+ nuclei that were also condensed and fragmented as assessed by DAPI. The data were plotted as the number of cleaved caspase-3/mCherry+ cells divided by total number of mCherry+ cells.

[2] = cited from earlier work

In the case of `O=C(O)CCc1cc(I)c(Oc2ccc(O)cc2)c(I)c1` [DITPA, 3,5-Diiodothyropropionic acid], the “cell death / apoptosis mediated by slc16a2 knock-down” value [1] is listed as “significantly reduced cell death; also recorded: Depicts an experiment which shows that DITPA rescues oligodendrocyte death” and the “solubility in water and aqueous solutions” value [2] is listed as “sparingly soluble”.
